Assay results as given in ChEMBL document CHEMBL3991601, “The target landscape of clinical kinase drugs” (Science, 2017).
The source made the active and inactive calls.

Columns and labels:
[1] = target: T1, Serine/threonine-protein kinase Nek1 (Homo sapiens, UniProt Q96PY6)
T1 sequence (Q96PY6 whole entry): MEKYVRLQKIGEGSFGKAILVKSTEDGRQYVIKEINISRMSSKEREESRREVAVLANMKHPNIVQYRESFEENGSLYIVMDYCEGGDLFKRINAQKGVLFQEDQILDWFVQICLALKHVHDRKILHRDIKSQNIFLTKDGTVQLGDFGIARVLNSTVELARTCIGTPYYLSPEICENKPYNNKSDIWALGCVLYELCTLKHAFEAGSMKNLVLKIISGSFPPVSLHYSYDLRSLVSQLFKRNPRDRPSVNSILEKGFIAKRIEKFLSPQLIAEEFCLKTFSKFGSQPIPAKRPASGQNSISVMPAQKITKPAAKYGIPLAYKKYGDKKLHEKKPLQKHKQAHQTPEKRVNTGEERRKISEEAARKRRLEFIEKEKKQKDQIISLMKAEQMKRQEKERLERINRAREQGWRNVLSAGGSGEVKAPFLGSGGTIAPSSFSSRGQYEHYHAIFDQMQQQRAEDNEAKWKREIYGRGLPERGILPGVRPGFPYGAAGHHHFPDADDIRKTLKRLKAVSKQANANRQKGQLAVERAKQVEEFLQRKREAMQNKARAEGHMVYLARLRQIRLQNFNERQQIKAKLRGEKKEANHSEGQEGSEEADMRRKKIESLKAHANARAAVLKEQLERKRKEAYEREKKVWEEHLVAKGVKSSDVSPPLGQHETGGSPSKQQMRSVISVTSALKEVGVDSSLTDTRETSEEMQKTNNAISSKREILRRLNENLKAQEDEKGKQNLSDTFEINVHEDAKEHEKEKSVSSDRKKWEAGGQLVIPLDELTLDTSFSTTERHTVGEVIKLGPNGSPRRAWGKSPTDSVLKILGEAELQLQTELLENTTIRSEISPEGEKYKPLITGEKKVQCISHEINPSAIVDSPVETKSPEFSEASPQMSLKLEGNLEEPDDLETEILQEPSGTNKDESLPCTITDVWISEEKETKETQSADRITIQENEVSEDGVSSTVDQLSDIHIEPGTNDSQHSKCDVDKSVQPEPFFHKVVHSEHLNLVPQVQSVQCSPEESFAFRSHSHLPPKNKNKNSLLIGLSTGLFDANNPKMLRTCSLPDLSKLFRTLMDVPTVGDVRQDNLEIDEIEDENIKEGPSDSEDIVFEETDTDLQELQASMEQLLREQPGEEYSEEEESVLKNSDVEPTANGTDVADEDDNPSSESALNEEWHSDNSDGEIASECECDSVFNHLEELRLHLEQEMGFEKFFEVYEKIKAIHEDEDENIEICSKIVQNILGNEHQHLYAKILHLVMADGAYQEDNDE

[2] = target: T2, Calcium/calmodulin-dependent protein kinase type IV (Homo sapiens, UniProt Q16566)
T2 sequence (Q16566 whole entry): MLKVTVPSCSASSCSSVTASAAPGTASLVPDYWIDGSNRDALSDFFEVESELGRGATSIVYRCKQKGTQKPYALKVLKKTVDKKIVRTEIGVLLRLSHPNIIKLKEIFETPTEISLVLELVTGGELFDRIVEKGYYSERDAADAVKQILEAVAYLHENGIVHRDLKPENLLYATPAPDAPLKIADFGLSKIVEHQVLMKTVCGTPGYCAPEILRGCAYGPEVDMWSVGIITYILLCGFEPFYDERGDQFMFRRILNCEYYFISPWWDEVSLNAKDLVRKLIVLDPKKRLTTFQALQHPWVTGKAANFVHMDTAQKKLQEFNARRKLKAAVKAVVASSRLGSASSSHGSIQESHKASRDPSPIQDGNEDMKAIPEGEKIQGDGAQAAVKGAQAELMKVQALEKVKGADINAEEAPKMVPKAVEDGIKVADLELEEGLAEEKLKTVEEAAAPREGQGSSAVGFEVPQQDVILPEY

[3] = target: T3, Serine/threonine-protein kinase TAO2 (Homo sapiens, UniProt Q9UL54)
T3 sequence (Q9UL54 whole entry): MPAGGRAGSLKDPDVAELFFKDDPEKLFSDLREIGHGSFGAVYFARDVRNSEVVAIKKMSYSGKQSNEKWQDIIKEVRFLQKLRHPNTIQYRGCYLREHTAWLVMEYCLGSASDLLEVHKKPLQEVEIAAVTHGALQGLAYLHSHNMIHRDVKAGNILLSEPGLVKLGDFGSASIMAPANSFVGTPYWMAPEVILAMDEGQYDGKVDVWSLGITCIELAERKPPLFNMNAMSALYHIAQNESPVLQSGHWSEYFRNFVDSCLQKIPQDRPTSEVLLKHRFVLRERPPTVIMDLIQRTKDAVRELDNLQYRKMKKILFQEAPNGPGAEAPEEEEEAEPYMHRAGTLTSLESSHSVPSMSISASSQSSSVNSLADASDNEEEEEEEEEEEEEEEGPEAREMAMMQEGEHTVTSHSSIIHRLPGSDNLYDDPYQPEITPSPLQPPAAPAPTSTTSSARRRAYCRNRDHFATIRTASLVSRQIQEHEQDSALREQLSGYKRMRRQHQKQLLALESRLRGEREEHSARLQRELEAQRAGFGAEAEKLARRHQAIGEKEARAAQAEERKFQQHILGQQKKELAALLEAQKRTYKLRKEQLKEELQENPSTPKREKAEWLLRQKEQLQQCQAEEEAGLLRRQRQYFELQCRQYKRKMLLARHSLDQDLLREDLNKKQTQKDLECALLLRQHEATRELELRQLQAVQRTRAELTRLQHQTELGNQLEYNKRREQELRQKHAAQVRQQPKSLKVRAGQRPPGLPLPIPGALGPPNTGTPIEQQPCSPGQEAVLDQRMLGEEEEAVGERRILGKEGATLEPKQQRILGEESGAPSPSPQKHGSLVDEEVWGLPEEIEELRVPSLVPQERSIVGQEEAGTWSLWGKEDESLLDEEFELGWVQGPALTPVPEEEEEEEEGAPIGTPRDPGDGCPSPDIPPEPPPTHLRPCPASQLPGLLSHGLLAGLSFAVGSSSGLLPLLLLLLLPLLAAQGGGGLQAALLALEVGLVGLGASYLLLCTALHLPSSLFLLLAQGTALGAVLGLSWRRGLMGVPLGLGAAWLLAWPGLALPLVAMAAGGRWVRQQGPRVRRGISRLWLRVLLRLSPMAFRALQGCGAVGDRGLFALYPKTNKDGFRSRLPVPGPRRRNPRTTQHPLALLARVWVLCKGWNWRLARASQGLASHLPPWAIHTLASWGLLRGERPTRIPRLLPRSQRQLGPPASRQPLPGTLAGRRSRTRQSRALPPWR

[4] = target: Structural maintenance of chromosomes protein 2 (Homo sapiens, UniProt O95347)
Further: in the data inactive means no Kd found up to 30 µM.

Chain of Structural maintenance of chromosomes protein 2 (O95347 whole entry): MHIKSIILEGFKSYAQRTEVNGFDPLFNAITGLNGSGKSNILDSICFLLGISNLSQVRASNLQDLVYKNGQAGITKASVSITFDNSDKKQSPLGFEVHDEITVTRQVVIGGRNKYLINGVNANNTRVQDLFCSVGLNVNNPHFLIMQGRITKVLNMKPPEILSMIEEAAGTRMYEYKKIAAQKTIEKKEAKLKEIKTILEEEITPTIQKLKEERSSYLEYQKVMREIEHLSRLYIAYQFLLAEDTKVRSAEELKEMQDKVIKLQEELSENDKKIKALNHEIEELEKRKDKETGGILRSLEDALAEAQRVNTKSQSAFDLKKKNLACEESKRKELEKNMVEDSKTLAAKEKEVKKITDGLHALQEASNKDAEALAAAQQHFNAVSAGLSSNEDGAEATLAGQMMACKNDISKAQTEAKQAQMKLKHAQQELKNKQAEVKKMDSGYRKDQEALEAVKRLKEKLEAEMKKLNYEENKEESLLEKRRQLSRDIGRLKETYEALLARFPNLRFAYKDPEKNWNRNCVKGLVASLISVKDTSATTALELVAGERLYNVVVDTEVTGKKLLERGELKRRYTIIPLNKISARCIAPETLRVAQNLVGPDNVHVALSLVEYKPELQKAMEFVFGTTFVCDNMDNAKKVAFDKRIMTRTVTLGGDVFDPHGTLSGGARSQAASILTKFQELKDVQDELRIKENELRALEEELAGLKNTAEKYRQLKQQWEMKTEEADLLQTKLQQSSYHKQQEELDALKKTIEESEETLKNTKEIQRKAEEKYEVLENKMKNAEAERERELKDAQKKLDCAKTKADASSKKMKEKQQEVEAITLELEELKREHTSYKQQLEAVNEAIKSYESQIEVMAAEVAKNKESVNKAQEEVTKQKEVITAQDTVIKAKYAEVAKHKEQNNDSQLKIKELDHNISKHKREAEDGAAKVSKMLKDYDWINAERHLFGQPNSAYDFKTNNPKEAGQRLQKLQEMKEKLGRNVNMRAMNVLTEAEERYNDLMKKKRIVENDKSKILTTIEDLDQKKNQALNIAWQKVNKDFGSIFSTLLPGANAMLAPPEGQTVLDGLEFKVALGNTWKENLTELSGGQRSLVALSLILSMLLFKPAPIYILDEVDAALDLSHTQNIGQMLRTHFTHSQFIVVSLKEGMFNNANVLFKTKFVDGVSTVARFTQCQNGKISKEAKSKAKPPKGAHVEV

SMILES | Kd [1] | Kd [2] | Kd [3] | Kd [4]
CC(=O)c1cnc2ccc(-c3cc(Cl)c(O)c(Cl)c3)nc2c1N[C@H]1CC[C@H](CN(C)C)CC1 | > 30 µM (inactive) | > 30 µM (inactive) | 0.01 µM | > 30 µM (inactive)
C=CC(=O)N1CCC[C@H](n2c(=O)n(-c3ccc(Oc4ccccc4)cc3)c3c(N)ncnc32)C1 | > 30 µM (inactive) | > 30 µM (inactive) | > 30 µM (inactive) | > 30 µM (inactive)
Cc1nc2cc(-c3nn(C(C)C)c4ncnc(N)c34)ccc2o1 | > 30 µM (inactive) | 5.96 µM (active) | 1.73 µM (active) | > 30 µM (inactive)
Nc1ncnc2c1c(-c1cccc(OCc3ccccc3)c1)cn2[C@H]1C[C@@H](CN2CCC2)C1 [AEW-541] | > 30 µM (inactive) | > 30 µM (inactive) | > 30 µM (inactive) | > 30 µM (inactive)
CNC(=O)c1ccccc1Sc1ccc2c(/C=C/c3ccccn3)n[nH]c2c1 [AXITINIB] |  |  |  | > 30 µM (inactive)
COc1cc([C@@H]2c3cc4c(cc3[C@H](O)[C@H]3COC(=O)[C@@H]23)OCO4)cc(OC)c1OC [AXL-1717] | > 30 µM (inactive) | > 30 µM (inactive) | > 30 µM (inactive) | > 30 µM (inactive)
NC(=O)Nc1cc(-c2cccc(F)c2)sc1C(=O)N[C@H]1CCCNC1 [AZD-7762] | > 30 µM (inactive) | > 30 µM (inactive) | > 30 µM (inactive) | > 30 µM (inactive)
Cc1cc(C(=O)NOCCO)c(Nc2ccc(I)cc2F)n(C)c1=O [AZD-8330] | > 30 µM (inactive) | > 30 µM (inactive) | > 30 µM (inactive) | > 30 µM (inactive)
Cn1cnc2c(F)c(Nc3ccc(Br)cc3F)c(C(=O)NOCCO)cc21 [BINIMETINIB] | > 30 µM (inactive) | > 30 µM (inactive) | > 30 µM (inactive) | > 30 µM (inactive)
CCn1c(C(=O)N(C2CC2)C2CC2)cc2c3c(ncn3C)c(Nc3cc(C)n(C)n3)nc21 [BMS-911543] | > 30 µM (inactive) | > 30 µM (inactive) | > 30 µM (inactive) | > 30 µM (inactive)
CC(C)(C)c1nc(-c2cccc(NS(=O)(=O)c3c(F)cccc3F)c2F)c(-c2ccnc(N)n2)s1 [DABRAFENIB] |  |  | > 30 µM (inactive) | > 30 µM (inactive)
Cn1cc(C2=C(c3cn(C4CCN(Cc5ccccn5)CC4)c4ccccc34)C(=O)NC2=O)c2ccccc21 [ENZASTAURIN] |  |  |  | > 30 µM (inactive)
C[C@@H](Oc1cc(-n2cnc3ccc(CN4CCN(C)CC4)cc32)sc1C(N)=O)c1ccccc1C(F)(F)F [GSK-461364] |  |  |  | > 30 µM (inactive)
CCOc1cc2ncc(C#N)c(Nc3ccc(F)c(Cl)c3)c2cc1NC(=O)/C=C/CN(C)C [PELITINIB] |  | > 30 µM (inactive) | > 30 µM (inactive) | > 30 µM (inactive)

Results, then the molecule that gave them:

Kd [1] | Kd [2] | Kd [3] | Kd [4] | SMILES
> 30 µM (inactive) | > 30 µM (inactive) | > 30 µM (inactive) | > 30 µM (inactive) | C[C@@H](Oc1cc(C(=O)Nc2ccc(C(=O)N3CCN(C)CC3)cc2)nnc1N)c1c(Cl)ccc(F)c1Cl
> 30 µM (inactive) | > 30 µM (inactive) | > 30 µM (inactive) | > 30 µM (inactive) | C[C@H]1CNCCCN1S(=O)(=O)c1cccc2cncc(F)c12
> 30 µM (inactive) | > 30 µM (inactive) | > 30 µM (inactive) | > 30 µM (inactive) | CCNC(=O)C#Cc1ccc2c(c1)NC(=O)/C2=C(\Nc1ccc(CN(C)C)cc1)c1ccccc1
> 30 µM (inactive) | > 30 µM (inactive) | > 30 µM (inactive) | > 30 µM (inactive) | COCc1c(-c2ccc(NC(=O)Nc3cc(C(F)(F)F)ccc3F)c(F)c2)c2c(N)ncnn2c1CN1CCOCC1
> 30 µM (inactive) | > 30 µM (inactive) | > 30 µM (inactive) | > 30 µM (inactive) | COc1cc(Nc2ncc3c(n2)-c2ccc(Cl)cc2C(c2c(F)cccc2OC)=NC3)ccc1C(=O)O [ALISERTIB]
> 30 µM (inactive) |  | > 30 µM (inactive) | > 30 µM (inactive) | Cc1nc(NC(=O)N2CCC[C@H]2C(N)=O)sc1-c1ccnc(C(C)(C)C(F)(F)F)c1 [ALPELISIB]
2.38 µM (active) | 1.82 µM (active) | > 30 µM (inactive) | > 30 µM (inactive) | Cc1csc(-c2nnc(Nc3ccc(Oc4ncccc4-c4ccnc(N)n4)cc3)c3ccccc23)c1 [AMG-900]
> 30 µM (inactive) | > 30 µM (inactive) | > 30 µM (inactive) | > 30 µM (inactive) | O=C(Nc1c[nH]nc1-c1nc2cc(CN3CCOCC3)ccc2[nH]1)NC1CC1 [AT-9283]
> 30 µM (inactive) |  | > 30 µM (inactive) | > 30 µM (inactive) | C=CC(=O)Nc1cc2c(Nc3ccc(F)c(Cl)c3)ncnc2cc1C#CC(C)(C)N1CCN(C)CC1 [AV-412 FREE BASE]
> 30 µM (inactive) |  | > 30 µM (inactive) | > 30 µM (inactive) | Cc1nc2cc(-n3ncc(C(=O)c4cc5ccccc5[nH]4)c3N)ccc2[nH]1 [FGFR INHIBITOR DEBIO 1347]
> 30 µM (inactive) | > 30 µM (inactive) |  | > 30 µM (inactive) | CCn1cc(-c2ccnc3[nH]c(-c4cccc(CN(C)C)c4)cc23)c(-c2ccc(NC(=O)N(C)C)cc2)n1 [GSK-1070916]
 |  |  | > 30 µM (inactive) | O=C(NOCCO)c1cc(CN2OCCCC2=O)c(F)c(F)c1Nc1ccc(I)cc1F [RO-4987655]
 |  |  | > 30 µM (inactive) | N#CC[C@H](C1CCCC1)n1cc(-c2ncnc3[nH]ccc23)cn1 [RUXOLITINIB]
> 30 µM (inactive) |  | > 30 µM (inactive) | > 30 µM (inactive) | Cn1ncc(Cl)c1-c1cc(C(=O)N[C@H](CN)Cc2ccc(F)c(F)c2)oc1Cl [UPROSERTIB]
